The record followed here is US8153806B2, “Synthesis of 4-amino-thalidomide enantiomers” (The Children's Medical Center Corporation, priority 2000, dated 2012).

The subject of assay [1] is HsSultan B-cell lymphoma. Description: HsSultan B-cell lymphoma metastatic model in SCID mice. The following applies: for Activity: mean time to death: daily from two weeks after i.v. cell injection, vehicle 26 days. Type of assay: in vivo. As for the experimental part: (§1) Antitumor activity has been evaluated for the S(−) and the R(+)4-amino-thalidomide enantiomers as follows. For the HsS cell line, 2 million cells are injected into the tail vein of 8 week old, female, SCID mice. Treatment is initiated after two weeks and continued daily until the mice die or show hind limb paralysis. Results are expressed as mean time to death in treated versus control animals. For the Lewis lung model, 2.5×10(5) cells are injected intravenously into the tail vein of 6-8 week old, male, C57BL/6 mice and treatment is initiated on day three. The time period of treatment is usually 11-15 days in duration. After sacrifice by CO^2 asphyxiation, lungs (where tumors seed and grow) are removed, rinsed in water, patted dry, and weighed. Mean lung weights of age-matched, non-tumor bearing mice are subtracted from the weight of treated, tumor-bearing mice with results expressed as lung weight gain in treated versus control animals. Table 1 summarizes data from in vivo experiments in lung and plasma cell tumor metastatic tumor systems, comparing the antitumor activity of the three enantiomeric preparations of 4-amino thalidomide.

In assay [2] the test system is HS-Sultan cells. Description: XTT proliferation assay with HS-Sultan cells. The assay is classed as cell-based. The following applies: 72 hour treatment, FIG. 1. The text has this: The Roche Cell Proliferation Kit II (XTT) is an useful assay for screening the relative efficacy of small molecules. The assay quantitatively determines cellular proliferation in response to agonists and/or antagonists of proliferation. It is based on the cleavage of the yellow tetrazolium salt (XTT) by metabolically active/viable cells to form an orange formazan dye. The formation of the soluble dye allows direct quantification using a scanning mulitwell spectrophotometer. An increase in the number of living cells (resulting from proliferation) results in a greater production of formazan dye which corresponds to an increase in the absorbance value.
When evaluating analogs of thalidomide, or the like, we have employed HS-Sultan cells in an in vitro XTT assay. […] When the treatment/labeling period is complete, the plate is read on a spectrophotometric plate reader at a wavelength of 470 nm and a 650 nm reference wavelength. For individual experiments, the average absorbance values (with background subtracted) for each treatment are plotted against the concentration. A larger absorbance value corresponds to a greater amount of proliferation. A negative control (untreated cells) is used as a point of reference; an absorbance value less than the control reflects inhibition of proliferation. […]
On the technique in general: Tetrazolium dyes change colour on reduction, which living cells bring about.

For assay [3], the system named is Lewis lung carcinoma. Description: Lewis lung carcinoma metastatic model in C57BL/6 mice. Type of assay: in vivo. The following applies: for Activity: weight gain of lung: 100 mg/kg/day, treatment from day three, vehicle 0.40 g. How it is done: as §1
Assay [4] relates to VEGF induced neovascularization. Description: Corneal micropocket assay, VEGF pellet. Type of assay: in vivo, C57BL/6J mice. Conditions: 50 mg/kg i.p. daily for six days, n=9 each, P<0.001, FIG. 2. How it is done:
(§2) A corneal micropocket assay was performed as described in Kenyon, et al., A Model of Angiogenesis in the Mouse Cornea, Invest. Ophtalmol. & Vis. Sci., 37, 1625-1632 (1996), which is incorporated herein in its entirety. Pellets were used containing 80 ng of bFGF or human recombinat VEGF (R&D Systems, Minneapolis, Minn.) in C57BL/6J mice. […] Differences in VEGF induced neovascularization between S(−)-3APG and control were significant (n=9 each, P<0.001), as were differences between S(−)-3APG and thalidomide (n=9 each, P<0.01).

Assay [5] concerns bFGF induced neovascularization. Description: Corneal micropocket assay, bFGF pellet. Conditions: 50 mg/kg i.p. daily for five days, n=9 each, P<0.0001, FIG. 2. Type of assay: in vivo, C57BL/6J mice. How it is done:
as §2

Turning to `Nc1cccc2c1C(=O)N([C@@H]1CCC(=O)NC1=O)C2=O` [R(+)-4-amino-thalidomide], the “Activity: mean time to death” value in assay [1] (50 mg/kg/day) was found to be 37 days; in assay [1] (200 mg/kg/day), 31 days. In addition, in assay [2], the “anti-cellular proliferation activity (XTT, treatment over control)” value is “show anti-cellular proliferation activity”. Besides, the “Activity: weight gain of lung” value in assay [3] was 0.42 g.
As for `Nc1cccc2c1C(=O)N(C1CCC(=O)NC1=O)C2=O` (stereo not drawn) [R, S, 4-amino-thalidomide], the “Activity: mean time to death” value in assay [1] (50 mg/kg/day) turned out to be 41 days; in assay [1] (200 mg/kg/day), 28 days. Moreover, the “Activity: weight gain of lung” value in assay [3] is 0.27 g.
As to `Nc1cccc2c1C(=O)N([C@H]1CCC(=O)NC1=O)C2=O` [S(−)-4-amino-thalidomide, S(−)-4-Amino-thalidomide], the “difference in VEGF induced neovascularization versus control” value in assay [4] is given as “significant”. In assay [5], the “difference in bFGF induced neovascularization versus control” value is “significant”. Further, the “Activity: mean time to death” value in assay [1] (50 mg/kg/day) and in assay [1] (200 mg/kg/day) was 47 days throughout. Also, the “antitumor activity compared among the enantiomeric preparations of 4-amino thalidomide” value in assay [1] (summary of Table 1) and in assay [3] (summary of Table 1) was “most active enantiomer” in each case. The “anti-cellular proliferation activity (XTT, treatment over control)” value in assay [2] is “show anti-cellular proliferation activity”. Further, the “Activity: weight gain of lung” value in assay [3] worked out at 0.17 g.
